Reference: PubChem BioAssay AID2060617 (Molecular Pharmacology Branch, DTP, NCI, 2025)
Values joined by “and” are separate entries in the source; they are usually repeats but may differ in a detail not shown here. Equal values may be shown once.

System: 485368-065-R4-J2-PDC spheroids with HUVEC/MSC, viability
Test: Anticancer human tumor 485368-065-R4-J2-PDC patient-derived pancreatic carcinoma cell line growth inhibition [CLK]
Conditions: for viability, T/C: stronger effect = lower value; active = viability on the fitted dose curve at most 10% of control; inactive = the rest
Outline: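 Multi-cell-type spheroids combined patient-derived tumor cells with HUVEC endothelial cells and human mesenchymal stem cells. Paired agents were dosed in half-log steps down from about clinical Cmax, or from 10 microM where Cmax was unknown.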

[1] = curve of first compound, second compound 0.0316 µM
[2] = curve of first compound, second compound 0.1 µM
[3] = curve of first compound, second compound 0.316 µM
[4] = curve of first compound, second compound 1 µM
[5] = curve of first compound, second compound 3.16 µM
[6] = curve of first compound, second compound 10 µM
[7] = second compound 0.0316 µM, first compound 0.0316 µM
[8] = second compound 0.0316 µM, first compound 0.1 µM
[9] = second compound 0.0316 µM, first compound 0.316 µM
[10] = second compound 0.0316 µM, first compound 1 µM
[11] = second compound 0.1 µM, first compound 0.0316 µM
[12] = second compound 0.1 µM, first compound 0.1 µM
[13] = second compound 0.1 µM, first compound 0.316 µM
[14] = second compound 0.1 µM, first compound 1 µM
[15] = second compound 0.316 µM, first compound 0.0316 µM
[16] = second compound 0.316 µM, first compound 0.1 µM
[17] = second compound 0.316 µM, first compound 0.316 µM
[18] = second compound 0.316 µM, first compound 1 µM
[19] = second compound 1 µM, first compound 0.0316 µM
[20] = second compound 1 µM, first compound 0.1 µM
[21] = second compound 1 µM, first compound 0.316 µM
[22] = second compound 1 µM, first compound 1 µM
[23] = second compound 3.16 µM, first compound 0.0316 µM
[24] = second compound 3.16 µM, first compound 0.1 µM
[25] = second compound 3.16 µM, first compound 0.316 µM
[26] = second compound 3.16 µM, first compound 1 µM
[27] = second compound 10 µM, first compound 0.0316 µM
[28] = second compound 10 µM, first compound 0.1 µM
[29] = second compound 10 µM, first compound 0.316 µM
[30] = second compound 10 µM, first compound 1 µM
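Also: spheroids exposed to compounds for seven days.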
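For viability, T/C in this document: 100% = DMSO vehicle control wells.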

CCCS(=O)(=O)Nc1ccc(F)c(C(=O)c2c[nH]c3ncc(-c4ccc(Cl)cc4)cc23)c1F
inactive: viability, T/C (compound 0.0316 µM) 103% and 95.3% | viability, T/C (compound 0.1 µM) 109% and 96.8% | viability, T/C (compound 0.316 µM) 95.8% and 90.5% | viability, T/C (compound 1 µM) 93.7% and 90.6% | viability, T/C (compound 3.16 µM) 91.3% and 80.7% | viability, T/C (compound 10 µM) 123% and 108%
> 10 µM: IC50 (curve of compound)

CCN1CCN(Cc2ccc(Nc3ncc(F)c(-c4cc(F)c5nc(C)n(C(C)C)c5c4)n3)nc2)CC1 + CN1CCN(c2cc(C(=O)Nc3cc4cc(-c5cnn(C)c5)ccc4cn3)ccn2)CC1
active: viability, T/C (second compound 1 µM, first compound 0.00316 µM) 0.99% | viability, T/C (second compound 1 µM, first compound 0.01 µM) 0.79% | viability, T/C [19] 1.5% | viability, T/C [20] 1.72% | viability, T/C [21] 3.79% | viability, T/C [22] 6.61% | viability, T/C (second compound 3.16 µM, first compound 0.00316 µM) 1.45% | viability, T/C (second compound 3.16 µM, first compound 0.01 µM) 1.98% | viability, T/C [23] 1.44% | viability, T/C [24] 3.25% | viability, T/C [25] 3.87% | viability, T/C [26] 6.47% | viability, T/C (second compound 10 µM, first compound 0.00316 µM) 1.45% | viability, T/C (second compound 10 µM, first compound 0.01 µM) 1.41% | viability, T/C [27] 2.59% | viability, T/C [28] 1.89% | viability, T/C [29] 2.62% | viability, T/C [30] 3.7%
> 1 µM: IC50 [1] | IC50 [2] | IC50 [3]
< 0.00316 µM: IC50 [4] | IC50 [5] | IC50 [6]
inactive: viability, T/C (second compound 0.0316 µM, first compound 0.00316 µM) 94.5% | viability, T/C (second compound 0.0316 µM, first compound 0.01 µM) 116% | viability, T/C [7] 110% | viability, T/C [8] 138% | viability, T/C [9] 132% | viability, T/C [10] 120% | viability, T/C (second compound 0.1 µM, first compound 0.00316 µM) 103% | viability, T/C (second compound 0.1 µM, first compound 0.01 µM) 112% | viability, T/C [11] 113% | viability, T/C [12] 113% | viability, T/C [13] 126% | viability, T/C [14] 109% | viability, T/C (second compound 0.316 µM, first compound 0.00316 µM) 79% | viability, T/C (second compound 0.316 µM, first compound 0.01 µM) 76.1% | viability, T/C [15] 79.3% | viability, T/C [16] 78.9% | viability, T/C [17] 66.8% | viability, T/C [18] 60.7%

CC1COCCN1c1cc(C2(S(C)(=N)=O)CC2)nc(-c2ccnc3[nH]ccc23)n1 (stereo unspecified)
> 10 µM: IC50 (curve of compound)
inactive: viability, T/C (compound 0.0316 µM) 91.5% and 90.7% | viability, T/C (compound 0.1 µM) 97.5% and 93.1% | viability, T/C (compound 0.316 µM) 94.5% and 104% | viability, T/C (compound 1 µM) 108% and 91.3% | viability, T/C (compound 3.16 µM) 109% and 108% | viability, T/C (compound 10 µM) 102% and 113%

C=C(F)C(=O)N1CCN(c2nc(OCC3CCCN3C)nc3c2CCN(c2cccc4cccc(Cl)c24)C3)CC1CC#N (stereo unspecified)
inactive: viability, T/C (compound 0.0316 µM) 94.9% and 103% | viability, T/C (compound 0.1 µM) 97% and 106% | viability, T/C (compound 0.316 µM) 95.6% and 100% | viability, T/C (compound 1 µM) 106% and 105% | viability, T/C (compound 3.16 µM) 121% and 113% | viability, T/C (compound 10 µM) 104% and 126%
> 10 µM: IC50 (curve of compound)

NC(=O)C(=Cn1cnc(-c2cc(C(F)(F)F)cc(C(F)(F)F)c2)n1)c1cncnc1 + CN1CCN(c2cc(C(=O)Nc3cc4cc(-c5cnn(C)c5)ccc4cn3)ccn2)CC1
active: viability, T/C (second compound 0.316 µM, first compound 0.3 µM) 11.8% | viability, T/C (second compound 0.316 µM, first compound 0.949 µM) 4.77% | viability, T/C (second compound 0.316 µM, first compound 3 µM) 3.83% | viability, T/C (second compound 1 µM, first compound 0.00949 µM) 0.93% | viability, T/C (second compound 1 µM, first compound 0.03 µM) 1.37% | viability, T/C (second compound 1 µM, first compound 0.0949 µM) 3.35% | viability, T/C (second compound 1 µM, first compound 0.3 µM) 7.19% | viability, T/C (second compound 1 µM, first compound 0.949 µM) 6.52% | viability, T/C (second compound 1 µM, first compound 3 µM) 6.06% | viability, T/C (second compound 3.16 µM, first compound 0.00949 µM) 1.64% | viability, T/C (second compound 3.16 µM, first compound 0.03 µM) 3.12% | viability, T/C (second compound 3.16 µM, first compound 0.0949 µM) 5.78% | viability, T/C (second compound 3.16 µM, first compound 0.3 µM) 7.76% | viability, T/C (second compound 3.16 µM, first compound 0.949 µM) 10.5% | viability, T/C (second compound 3.16 µM, first compound 3 µM) 8.08% | viability, T/C (second compound 10 µM, first compound 0.00949 µM) 1.73% | viability, T/C (second compound 10 µM, first compound 0.03 µM) 4.63% | viability, T/C (second compound 10 µM, first compound 0.0949 µM) 4.7% | viability, T/C (second compound 10 µM, first compound 0.3 µM) 7.24% | viability, T/C (second compound 10 µM, first compound 0.949 µM) 9.55% | viability, T/C (second compound 10 µM, first compound 3 µM) 6.71%
< 0.00949 µM: IC50 [4] | IC50 [5] | IC50 [6]
inactive: viability, T/C (second compound 0.0316 µM, first compound 0.00949 µM) 100% | viability, T/C (second compound 0.0316 µM, first compound 0.03 µM) 127% | viability, T/C (second compound 0.0316 µM, first compound 0.0949 µM) 173% | viability, T/C (second compound 0.0316 µM, first compound 0.3 µM) 170% | viability, T/C (second compound 0.0316 µM, first compound 0.949 µM) 142% | viability, T/C (second compound 0.0316 µM, first compound 3 µM) 71.4% | viability, T/C (second compound 0.1 µM, first compound 0.00949 µM) 109% | viability, T/C (second compound 0.1 µM, first compound 0.03 µM) 125% | viability, T/C (second compound 0.1 µM, first compound 0.0949 µM) 155% | viability, T/C (second compound 0.1 µM, first compound 0.3 µM) 129% | viability, T/C (second compound 0.1 µM, first compound 0.949 µM) 79.5% | viability, T/C (second compound 0.1 µM, first compound 3 µM) 49.2% | viability, T/C (second compound 0.316 µM, first compound 0.00949 µM) 71.2% | viability, T/C (second compound 0.316 µM, first compound 0.03 µM) 65.3% | viability, T/C (second compound 0.316 µM, first compound 0.0949 µM) 28.8%
> 3 µM: IC50 [1]
0.0481 µM: IC50 [3]
2.91 µM: IC50 [2]

C=CC(=O)N1CCN(c2nc(=O)n(-c3c(C)ccnc3C(C)C)c3nc(-c4c(O)cccc4F)c(F)cc23)C(C)C1 (stereo unspecified)
inactive: viability, T/C (compound 0.0316 µM) 96.8% and 96.9% | viability, T/C (compound 0.1 µM) 96.4% and 107% | viability, T/C (compound 0.316 µM) 99.8% and 100% | viability, T/C (compound 1 µM) 97.9% and 106% | viability, T/C (compound 3.16 µM) 92.3% and 88.3% | viability, T/C (compound 10 µM) 89.2% and 93.7%
> 10 µM: IC50 (curve of compound)

CNC(=O)c1ccc(Nc2nc(OC3CCCC3)c3c(-c4ccc5nc(C)oc5c4)c[nH]c3n2)c(OC)c1
inactive: viability, T/C (compound 0.0316 µM) 91.6% [middle of 12 runs] | viability, T/C (compound 0.1 µM) 96.7% [middle of 12 runs] | viability, T/C (compound 0.316 µM) 82.6% [middle of 12 runs] | viability, T/C (compound 1 µM) 70.9% [middle of 12 runs] | viability, T/C (compound 3.16 µM) 71.5% [middle of 12 runs] | viability, T/C (compound 10 µM) 76.5% [middle of 12 runs]
> 10 µM: IC50 (compound alone, run of 08/15/2023)

Nc1ccccc1NC(=O)c1ccc(CNC(=O)OCc2cccnc2)cc1 + CNC(=O)c1ccc(Nc2nc(OC3CCCC3)c3c(-c4ccc5nc(C)oc5c4)c[nH]c3n2)c(OC)c1
6.73 µM: IC50 [3]
5.51 µM: IC50 [6]
6.55 µM: IC50 [2]
6.71 µM: IC50 [1]
5.72 µM: IC50 [4]
5.1 µM: IC50 [5]
inactive: viability, T/C [7] 89.6% | viability, T/C [8] 96.7% | viability, T/C [9] 94.7% | viability, T/C [10] 90.3% | viability, T/C (second compound 0.0316 µM, first compound 3.16 µM) 82.8% | viability, T/C (second compound 0.0316 µM, first compound 10 µM) 32.4% | viability, T/C [11] 92.1% | viability, T/C [12] 93.8% | viability, T/C [13] 102% | viability, T/C [14] 87.3% | viability, T/C (second compound 0.1 µM, first compound 3.16 µM) 81.7% | viability, T/C (second compound 0.1 µM, first compound 10 µM) 31.9% | viability, T/C [15] 74.4% | viability, T/C [16] 79.8% | viability, T/C [17] 83.9% | viability, T/C [18] 89.7% | viability, T/C (second compound 0.316 µM, first compound 3.16 µM) 83.2% | viability, T/C (second compound 0.316 µM, first compound 10 µM) 33.1% | viability, T/C [19] 86% | viability, T/C [20] 80.8% | viability, T/C [21] 71.3% | viability, T/C [22] 77.9% | viability, T/C (second compound 1 µM, first compound 3.16 µM) 70.6% | viability, T/C (second compound 1 µM, first compound 10 µM) 30.6% | viability, T/C [23] 71.5% | viability, T/C [24] 74.8% | viability, T/C [25] 72.2% | viability, T/C [26] 65.9% | viability, T/C (second compound 3.16 µM, first compound 3.16 µM) 65.6% | viability, T/C (second compound 3.16 µM, first compound 10 µM) 29.3% | viability, T/C [27] 67.6% | viability, T/C [28] 73.9% | viability, T/C [29] 67.8% | viability, T/C [30] 73.6% | viability, T/C (second compound 10 µM, first compound 3.16 µM) 69.8% | viability, T/C (second compound 10 µM, first compound 10 µM) 28.6%
